According to ChEMBL document CHEMBL1909046, “DrugMatrix in vitro pharmacology data”:

Legend:
[1] = target: T1, Nitric oxide synthase, inducible (Mus musculus, UniProt P29477); design: species or system Escherichia coli;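 further: inhibition of iNOS enzyme activity measured with L-arginine as substrate; in other assays of this panel Not Active means under 50% inhibition at 10 µM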
T1 sequence (P29477 whole entry): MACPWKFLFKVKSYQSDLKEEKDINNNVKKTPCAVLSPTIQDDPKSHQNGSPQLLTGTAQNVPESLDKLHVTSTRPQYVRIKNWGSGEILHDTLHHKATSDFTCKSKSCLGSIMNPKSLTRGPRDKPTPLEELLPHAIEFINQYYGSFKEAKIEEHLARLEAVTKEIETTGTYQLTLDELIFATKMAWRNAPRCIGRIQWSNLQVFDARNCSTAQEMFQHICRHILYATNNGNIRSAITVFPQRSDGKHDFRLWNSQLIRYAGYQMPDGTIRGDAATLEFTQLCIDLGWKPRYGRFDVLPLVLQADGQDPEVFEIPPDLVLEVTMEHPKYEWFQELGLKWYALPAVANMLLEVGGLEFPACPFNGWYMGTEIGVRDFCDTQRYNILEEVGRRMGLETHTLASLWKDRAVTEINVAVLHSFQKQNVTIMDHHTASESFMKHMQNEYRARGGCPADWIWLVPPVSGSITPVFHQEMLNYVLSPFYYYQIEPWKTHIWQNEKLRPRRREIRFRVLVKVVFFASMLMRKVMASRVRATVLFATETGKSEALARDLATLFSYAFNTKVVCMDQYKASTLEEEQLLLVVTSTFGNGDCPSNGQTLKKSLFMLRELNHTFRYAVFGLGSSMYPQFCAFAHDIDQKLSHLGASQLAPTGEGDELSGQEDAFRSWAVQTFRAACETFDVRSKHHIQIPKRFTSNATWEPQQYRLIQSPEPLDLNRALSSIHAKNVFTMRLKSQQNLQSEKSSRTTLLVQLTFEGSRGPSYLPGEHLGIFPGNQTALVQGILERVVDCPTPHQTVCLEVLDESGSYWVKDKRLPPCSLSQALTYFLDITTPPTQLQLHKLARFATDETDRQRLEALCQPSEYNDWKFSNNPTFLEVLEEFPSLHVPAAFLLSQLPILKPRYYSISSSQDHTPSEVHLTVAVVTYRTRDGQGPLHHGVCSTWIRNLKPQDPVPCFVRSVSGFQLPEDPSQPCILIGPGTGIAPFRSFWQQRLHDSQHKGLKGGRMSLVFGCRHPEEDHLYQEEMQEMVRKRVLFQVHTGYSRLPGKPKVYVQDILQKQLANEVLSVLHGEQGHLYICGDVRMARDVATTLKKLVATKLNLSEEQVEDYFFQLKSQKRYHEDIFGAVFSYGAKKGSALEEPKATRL

Neutrophil elastase = target: T2, Neutrophil elastase (Homo sapiens, UniProt P08246); assay type: tissue-based;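 further: inhibition of neutrophil elastase enzyme activity, measured with a p-nitroanilide-linked peptide substrate; in other assays of this panel Not Active means under 50% inhibition at 10 µM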
T2 sequence (P08246 whole entry): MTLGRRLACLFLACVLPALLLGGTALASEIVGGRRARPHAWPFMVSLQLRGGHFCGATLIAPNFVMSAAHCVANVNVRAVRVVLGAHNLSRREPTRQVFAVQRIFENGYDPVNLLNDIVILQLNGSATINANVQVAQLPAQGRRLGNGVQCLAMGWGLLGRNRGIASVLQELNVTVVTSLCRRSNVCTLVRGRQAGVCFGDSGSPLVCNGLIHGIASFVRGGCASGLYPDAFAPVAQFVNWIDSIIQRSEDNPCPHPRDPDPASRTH

Nitric oxide synthase 1 = Nitric oxide synthase 1 (Rattus norvegicus, UniProt P29476); assay type: tissue-based, Cerebellum; further: in other assays of this panel Not Active means under 50% inhibition at 10 µM
Vasopressin V1a receptor = Vasopressin V1a receptor (Homo sapiens, UniProt P37288); assay type: cell membranes, Membrane; settings: hek293; further: in other assays of this panel Not Active means under 50% inhibition at 10 µM
[2] = target: Beta-2 adrenergic receptor (Homo sapiens, UniProt P07550); experiment: DRUGMATRIX: Adrenergic beta2 radioligand binding (ligand: [3H] CGP-12177); assay type: cell membranes, CHO, Membrane; settings: cho; Not Active = under 50% inhibition at 10 µM
[3] = target: T3, Alpha-1A adrenergic receptor (Rattus norvegicus, UniProt P43140); experiment: DRUGMATRIX: Alpha-1A adrenergic receptor radioligand binding (ligand: prazosin); assay type: cell membranes, Wistar, Submaxillary gland, Membrane; settings: Not Active = under 50% inhibition at 10 µM
T3 sequence (P43140 whole entry): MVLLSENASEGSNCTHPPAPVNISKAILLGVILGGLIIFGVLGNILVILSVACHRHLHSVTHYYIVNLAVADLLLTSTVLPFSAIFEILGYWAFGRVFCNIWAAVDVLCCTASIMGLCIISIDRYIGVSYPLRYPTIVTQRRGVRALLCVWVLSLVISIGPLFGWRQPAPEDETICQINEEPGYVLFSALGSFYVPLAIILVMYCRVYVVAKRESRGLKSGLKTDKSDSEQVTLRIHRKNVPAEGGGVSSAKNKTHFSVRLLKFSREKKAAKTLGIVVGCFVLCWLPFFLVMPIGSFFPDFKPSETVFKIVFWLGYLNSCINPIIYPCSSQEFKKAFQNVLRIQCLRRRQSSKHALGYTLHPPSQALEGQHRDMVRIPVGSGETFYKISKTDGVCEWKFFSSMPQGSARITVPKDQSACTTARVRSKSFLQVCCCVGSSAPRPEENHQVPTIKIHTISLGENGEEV

[4] = target: Platelet-activating factor receptor (Homo sapiens, UniProt P25105); assay type: tissue-based; further: in other assays of this panel Not Active means under 50% inhibition at 10 µM
Cathepsin G = target: T4, Cathepsin G (Homo sapiens, UniProt P08311); assay type: tissue-based; settings: neutrophil
T4 sequence (P08311 whole entry): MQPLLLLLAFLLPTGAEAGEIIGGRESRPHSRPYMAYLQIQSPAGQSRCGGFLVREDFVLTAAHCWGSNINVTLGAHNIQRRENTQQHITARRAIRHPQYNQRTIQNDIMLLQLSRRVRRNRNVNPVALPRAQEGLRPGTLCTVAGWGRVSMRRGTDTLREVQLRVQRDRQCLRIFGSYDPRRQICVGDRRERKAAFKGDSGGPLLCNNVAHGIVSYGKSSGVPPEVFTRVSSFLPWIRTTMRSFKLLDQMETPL

Platelet-activating factor receptor, sequence (P25105 whole entry): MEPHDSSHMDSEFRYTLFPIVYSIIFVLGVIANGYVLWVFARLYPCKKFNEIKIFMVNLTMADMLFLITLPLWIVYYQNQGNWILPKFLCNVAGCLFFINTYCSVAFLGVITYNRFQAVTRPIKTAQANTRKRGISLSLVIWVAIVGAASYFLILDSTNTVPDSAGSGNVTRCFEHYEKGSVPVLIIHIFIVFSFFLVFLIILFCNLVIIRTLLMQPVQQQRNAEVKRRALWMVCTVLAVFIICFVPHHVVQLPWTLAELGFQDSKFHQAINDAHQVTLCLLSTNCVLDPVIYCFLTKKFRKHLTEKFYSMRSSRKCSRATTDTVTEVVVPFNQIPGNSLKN
Vasopressin V1a receptor, sequence (P37288 whole entry): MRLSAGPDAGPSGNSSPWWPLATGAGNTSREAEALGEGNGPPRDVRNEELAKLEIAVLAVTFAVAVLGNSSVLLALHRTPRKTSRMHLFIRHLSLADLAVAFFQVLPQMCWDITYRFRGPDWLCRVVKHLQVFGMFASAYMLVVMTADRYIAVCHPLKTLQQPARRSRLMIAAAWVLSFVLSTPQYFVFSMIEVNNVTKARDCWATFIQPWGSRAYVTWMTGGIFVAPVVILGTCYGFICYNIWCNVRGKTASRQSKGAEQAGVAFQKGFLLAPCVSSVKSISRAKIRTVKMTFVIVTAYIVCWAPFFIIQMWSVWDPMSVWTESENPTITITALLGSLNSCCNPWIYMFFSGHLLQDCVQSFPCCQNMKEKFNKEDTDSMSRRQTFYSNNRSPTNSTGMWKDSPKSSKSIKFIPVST
Nitric oxide synthase 1, sequence (P29476 whole entry): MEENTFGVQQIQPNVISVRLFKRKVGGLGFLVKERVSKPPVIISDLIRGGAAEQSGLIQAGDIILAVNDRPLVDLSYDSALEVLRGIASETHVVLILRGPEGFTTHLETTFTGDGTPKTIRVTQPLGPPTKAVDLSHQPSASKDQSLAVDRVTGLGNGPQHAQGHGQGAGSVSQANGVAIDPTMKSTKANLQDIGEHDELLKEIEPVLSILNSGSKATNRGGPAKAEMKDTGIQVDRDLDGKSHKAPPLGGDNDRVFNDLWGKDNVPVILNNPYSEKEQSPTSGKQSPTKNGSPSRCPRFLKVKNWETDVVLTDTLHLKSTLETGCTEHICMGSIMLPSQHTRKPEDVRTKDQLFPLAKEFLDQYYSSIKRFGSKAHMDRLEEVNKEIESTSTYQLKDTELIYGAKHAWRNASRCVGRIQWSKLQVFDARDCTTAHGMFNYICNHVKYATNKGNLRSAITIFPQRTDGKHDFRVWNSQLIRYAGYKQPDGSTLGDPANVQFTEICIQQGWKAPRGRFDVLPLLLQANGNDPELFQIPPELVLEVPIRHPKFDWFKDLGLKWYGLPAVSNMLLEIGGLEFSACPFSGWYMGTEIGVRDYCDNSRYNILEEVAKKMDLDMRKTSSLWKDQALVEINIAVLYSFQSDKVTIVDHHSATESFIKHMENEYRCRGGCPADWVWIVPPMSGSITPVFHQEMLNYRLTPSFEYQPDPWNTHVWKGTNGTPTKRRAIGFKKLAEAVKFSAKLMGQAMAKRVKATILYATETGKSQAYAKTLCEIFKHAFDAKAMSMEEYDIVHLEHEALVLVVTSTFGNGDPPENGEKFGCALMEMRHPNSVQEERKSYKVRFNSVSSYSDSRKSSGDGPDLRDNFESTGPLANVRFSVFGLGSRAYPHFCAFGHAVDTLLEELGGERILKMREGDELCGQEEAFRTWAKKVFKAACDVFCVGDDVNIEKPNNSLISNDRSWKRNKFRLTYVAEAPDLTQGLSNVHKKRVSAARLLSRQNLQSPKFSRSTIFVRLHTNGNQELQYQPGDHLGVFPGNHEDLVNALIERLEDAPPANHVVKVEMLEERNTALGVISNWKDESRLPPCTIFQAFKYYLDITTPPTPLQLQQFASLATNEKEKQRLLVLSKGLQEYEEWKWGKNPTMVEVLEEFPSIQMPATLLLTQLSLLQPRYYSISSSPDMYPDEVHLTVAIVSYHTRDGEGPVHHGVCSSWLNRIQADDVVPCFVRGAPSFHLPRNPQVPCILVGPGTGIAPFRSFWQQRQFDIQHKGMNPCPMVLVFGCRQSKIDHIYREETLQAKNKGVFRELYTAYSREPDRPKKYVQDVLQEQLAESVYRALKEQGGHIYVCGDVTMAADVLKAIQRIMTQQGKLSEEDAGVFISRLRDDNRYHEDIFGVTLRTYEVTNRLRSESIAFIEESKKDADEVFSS

CC1CCC(NC(=O)N(CCCl)N=O)CC1 (configuration not stated) [SEMUSTINE]
Not Active: IC50 [1] | IC50 (Neutrophil elastase) | IC50 (Nitric oxide synthase 1) | IC50 (Vasopressin V1a receptor) | IC50 [2] | IC50 [3] | IC50 [4] | IC50 (Cathepsin G)

O=C1C[C@@H]2OCC=C3CN4CC[C@]56c7ccccc7N1[C@H]5[C@H]2[C@H]3C[C@H]46 [STRYCHNINE]
Not Active: IC50 [1] | IC50 (Neutrophil elastase) | IC50 (Nitric oxide synthase 1) | IC50 (Vasopressin V1a receptor) | IC50 [2] | IC50 [3] | IC50 [4] | IC50 (Cathepsin G)

C[N+](C)(C)CCOC(=O)CCC(=O)OCC[N+](C)(C)C.[Cl-].[Cl-] [SUCCINYLCHOLINE CHLORIDE]
Not Active: IC50 [1] | IC50 (Neutrophil elastase) | IC50 (Nitric oxide synthase 1) | IC50 (Vasopressin V1a receptor) | IC50 [2] | IC50 [3] | IC50 [4] | IC50 (Cathepsin G)

Nc1ccc(S(=O)(=O)NC(=O)c2ccccc2)cc1 [SULFABENZAMIDE]
Not Active: IC50 [1] | IC50 (Neutrophil elastase) | IC50 (Nitric oxide synthase 1) | IC50 (Vasopressin V1a receptor) | IC50 [2] | IC50 [3] | IC50 [4] | IC50 (Cathepsin G)

CCCCCCCCNC(C)C(O)c1ccc(SC(C)C)cc1 (configuration not stated) [SULOCTIDIL]
Not Active: IC50 [1] | IC50 (Neutrophil elastase) | IC50 (Nitric oxide synthase 1) | IC50 (Vasopressin V1a receptor) | IC50 [2] | IC50 [3] | IC50 [4] | IC50 (Cathepsin G)

O=c1[nH]c(=O)n(C2CCCO2)cc1F (configuration not stated) [TEGAFUR]
Not Active: IC50 [1] | IC50 (Neutrophil elastase) | IC50 (Nitric oxide synthase 1) | IC50 (Vasopressin V1a receptor) | IC50 [2] | IC50 [3] | IC50 [4] | IC50 (Cathepsin G)

CC(=N)S [THIOACETAMIDE]
Not Active: IC50 [1] | IC50 (Neutrophil elastase) | IC50 (Nitric oxide synthase 1) | IC50 (Vasopressin V1a receptor) | IC50 [2] | IC50 [3] | IC50 [4] | IC50 (Cathepsin G)

Cc1ccc(C(=O)c2ccc(CC(=O)O)n2C)cc1 [TOLMETIN]
Not Active: IC50 [1] | IC50 (Neutrophil elastase) | IC50 (Nitric oxide synthase 1) | IC50 (Vasopressin V1a receptor) | IC50 [2] | IC50 [3] | IC50 [4] | IC50 (Cathepsin G)

CC(=O)OCC(COC(C)=O)OC(C)=O [TRIACETIN]
Not Active: IC50 [1] | IC50 (Neutrophil elastase) | IC50 (Nitric oxide synthase 1) | IC50 (Vasopressin V1a receptor) | IC50 [2] | IC50 [3] | IC50 [4] | IC50 (Cathepsin G)

CN1CCN(CCCN2c3ccccc3Sc3ccc(C(F)(F)F)cc32)CC1 [TRIFLUOPERAZINE]
Not Active: IC50 [1] | IC50 (Neutrophil elastase) | IC50 (Nitric oxide synthase 1) | IC50 (Vasopressin V1a receptor) | IC50 [2] | IC50 [3] | IC50 [4] | IC50 (Cathepsin G)

TRANSPLATIN
Not Active: IC50 [1] | Ki [1] | IC50 (Neutrophil elastase) | Ki (Neutrophil elastase) | IC50 (Nitric oxide synthase 1) | Ki (Nitric oxide synthase 1) | IC50 (Vasopressin V1a receptor) | Ki (Vasopressin V1a receptor) | IC50 [2] | Ki [2] | IC50 [3] | Ki [3] | IC50 [4] | Ki [4] | IC50 (Cathepsin G) | Ki (Cathepsin G)

ZIRCONIUM(IV) CHLORIDE
Not Active: IC50 [1] | Ki [1] | IC50 (Neutrophil elastase) | Ki (Neutrophil elastase) | IC50 (Nitric oxide synthase 1) | Ki (Nitric oxide synthase 1) | IC50 (Vasopressin V1a receptor) | Ki (Vasopressin V1a receptor) | IC50 [2] | Ki [2] | IC50 [3] | Ki [3] | IC50 [4] | Ki [4] | IC50 (Cathepsin G) | Ki (Cathepsin G)
